Experimental data reported in patent EP3319959B1, “HETERO-HALO INHIBITORS OF HISTONE DEACETYLASE” (Alkermes, Inc., priority 2015, dated 2017).

Key:
SH-SY5Y cells = assay: Cell assay in SH-SY5Y cells with HDAC-Glo 2 reagent; assay type: cell-based; conditions: Homo sapiens, 5 h, five hours at 37°C, CI-994 at 100 uM defined as 100% inhibition
Description: SH-SY5Y cells (Sigma) were cultured in Eagle's Modified Essential Medium supplemented with 10% fetal bovine serum and pen/strep. Twenty-four hours prior to compound dosing 20 uL of cells were plated in white 384 well plates at a density of 1,500 cells/well. Compounds were serially diluted in neat DMSO and then diluted 1:100 v/v into media without FBS and mixed. Media was removed from the plated cells and the diluted compounds in serum free media (1% v/v final DMSO) were added and incubated at 37°C for five hours. Ten uL of HDAC-Glo 2 reagent with 0.1% Triton X-100 was then added, the plate was mixed and allowed to develop at room temperature for 100 minutes. Plates were then read with a Spectramax LMax luminometer employing a 0.4s integration time. Dose response curves were constructed with normalized data where CI-994 at 100 uM was defined as 100% inhibition and DMSO alone as 0% inhibition. Table 5. IC50 and EC50 Values for Exemplary Compounds Useful in the Invention

recombinant human HDACs = assay: HDAC enzymatic assay (LabChip capillary electrophoresis); assay type: biochemical; conditions: 5 nM HDAC enzyme, 1 uM substrate, 5 hours pre-incubation, 17 hours reaction at 25°C; isoform not given
Description: All recombinant human HDACs were purchased from BPS Bioscience. The substrate, FAM-TSRHK(AC)KL-CONH, was synthesized at NanoSyn. Final assay reactions contained 100 mM HEPES (pH 7.5), 50 mM KCl, 0.1% BSA, 0.01% Triton X-100, 1% DMSO, 1 uM substrate and 5 nM HDAC enzyme. Enzyme and compounds were pre-incubated at 25°C for 5 hours and reactions were initiated by addition of substrate. 10 uL reactions were incubated for 17 hours at 25°C and terminated by the addition of 40 uL of buffer containing 100 mM HEPES (pH 7.5), 0.1% BSA, 0.01% Triton X-100 and 0.05% SDS. Substrate and product peptides present in each sample were separated electrophoretically using the LabChip 3000 capillary electrophoresis instrument. Change in the relative fluorescence intensity of the substrate and product peaks reflects enzyme activity. Reaction progress was determined as the product to sum ratio (PSR): P/(S+P), where P is the peak height of the product peptide and S is the peak height of the substrate peptide. Reactions were performed in duplicate at 12 concentrations, (3X serial dilutions starting at 30 uM). IC50 values were calculated using a 4 Parameter Logistic Model.

## CN1CCC(N2C[C@@H]3[C@H](C2)[C@H]3C(=O)Nc2nc(-c3ccc(F)cc3)ccc2N)CC1 (stereo in doubt) [Compound 263]
SH-SY5Y cells
  EC50: 500 to 5000 nM
Recombinant human HDACs
  IC50: 500 to 5000 nM

## Nc1ccc(-c2cccs2)nc1NC(=O)N1Cc2cc(CN3CCCC3)cnc2C1 [Compound 144]
SH-SY5Y cells
  EC50: 100 to 500 nM
Recombinant human HDACs
  IC50: 100 to 500 nM

## CN(C)Cc1cnc2c(c1)CN(C(=O)Nc1nc(-c3cccs3)ccc1N)C2 [Compound 145]
SH-SY5Y cells
  EC50: 100 to 500 nM
Recombinant human HDACs
  IC50: 100 to 500 nM

## CN(C)Cc1ccc(C2CN(C(=O)Nc3nc(-c4ccc(F)cc4)ccc3N)C2)cc1 [Compound 146]
SH-SY5Y cells
  EC50: 500 to 5000 nM
Recombinant human HDACs
  IC50: 100 to 500 nM

## CN1CC=C(c2cc3c(cn2)CN(C(=O)Nc2nc(-c4ccc(F)cc4)ccc2N)C3)CC1 [Compound 148]
SH-SY5Y cells
  EC50: 500 to 5000 nM
Recombinant human HDACs
  IC50: 100 to 500 nM

## CN1CCC(c2cc3c(cn2)CN(C(=O)Nc2nc(-c4ccc(F)cc4)ccc2N)C3)CC1 [Compound 149]
SH-SY5Y cells
  EC50: 100 to 500 nM
Recombinant human HDACs
  IC50: 100 to 500 nM

## CN(C)Cc1cnc2c(c1)CN(C(=O)Nc1nc(-c3ccc(F)cc3)ccc1N)C2 [Compound 154]
SH-SY5Y cells
  EC50: 100 to 500 nM
Recombinant human HDACs
  IC50: 100 to 500 nM

## Nc1ccc(-c2ccc(F)cc2)nc1NC(=O)N1Cc2cc(CN3CCCC3)cnc2C1 [Compound 155]
SH-SY5Y cells
  EC50: 100 to 500 nM
Recombinant human HDACs
  IC50: 100 to 500 nM

## Nc1ccc(-c2cccs2)nc1NC(=O)N1Cc2nccnc2C1 [Compound 156]
SH-SY5Y cells
  EC50: 100 to 500 nM
Recombinant human HDACs
  IC50: 100 to 500 nM

## CN1CCN(c2cnc3c(c2)CN(C(=O)Nc2nc(-c4ccc(F)cc4)ccc2N)C3)CC1 [Compound 159]
SH-SY5Y cells
  EC50: 500 to 5000 nM
Recombinant human HDACs
  IC50: 100 to 500 nM

## CN(C)Cc1cnc2c(c1)CN(C(=O)Nc1nc(-c3cccnc3)ccc1N)C2 [Compound 161]
SH-SY5Y cells
  EC50: 100 to 500 nM
Recombinant human HDACs
  IC50: 100 to 500 nM

## CN(C)Cc1cc2c(cn1)CN(C(=O)Nc1nc(-c3ccc(F)cc3)ccc1N)C2 [Compound 162]
SH-SY5Y cells
  EC50: 100 to 500 nM
Recombinant human HDACs
  IC50: 100 to 500 nM

## CN1CCc2sc(C(=O)Nc3nc(-c4ccco4)ccc3N)nc2C1 [Compound 163]
SH-SY5Y cells
  EC50: 100 to 500 nM
Recombinant human HDACs
  IC50: 100 to 500 nM

## COCc1cc2c(cn1)CN(C(=O)Nc1nc(-c3ccc(F)cc3)ccc1N)C2 [Compound 243]
SH-SY5Y cells
  EC50: 500 to 5000 nM
Recombinant human HDACs
  IC50: 100 to 500 nM

## CN1CCC(c2cnc3c(c2)CN(C(=O)Nc2nc(-c4cccs4)ccc2N)C3)CC1 [Compound 250]
SH-SY5Y cells
  EC50: 100 to 500 nM
Recombinant human HDACs
  IC50: 100 to 500 nM

## Nc1ccc(-c2ccc(F)cc2)nc1NC(=O)N1Cc2ccc(CN3CCC(F)(F)C3)cc2C1 [Compound 386]
Recombinant human HDACs
  IC50: 100 to 500 nM

## CN1CCC(c2ccc3c(c2)CN(C(=O)Nc2nc(-c4ccc(F)cc4)ccc2N)C3)CC1 [Compound 387]
Recombinant human HDACs
  IC50: 500 to 5000 nM

## COC1CCN(C(=O)Nc2nc(-c3ccc(F)cc3)ccc2N)C1 (stereo not drawn) [Compound 388]
Recombinant human HDACs
  IC50: 500 to 5000 nM

## COCC1CCN(C(=O)Nc2nc(-c3ccc(F)cc3)ccc2N)C1 (stereo not drawn) [Compound 389]
Recombinant human HDACs
  IC50: > 5000 nM

## Nc1ccc(-c2ccc(F)cc2)nc1NC(=O)N1CCC(C(F)(F)F)C1 (stereo not drawn) [Compound 390]
Recombinant human HDACs
  IC50: 500 to 5000 nM

## Nc1ccc(-c2ccc(F)cc2)nc1NC(=O)N1CC2COCC2C1 (stereo not drawn) [Compound 392]
Recombinant human HDACs
  IC50: 500 to 5000 nM

## COCc1ccc2c(c1)CN(C(=O)Nc1nc(-c3cccnc3)ccc1N)C2 [Compound 393]
Recombinant human HDACs
  IC50: 500 to 5000 nM

## CC(O)c1ccc2c(c1)CN(C(=O)Nc1nc(-c3ccc(F)cc3)ccc1N)C2 (stereo not drawn) [Compound 394]
Recombinant human HDACs
  IC50: 100 to 500 nM

## COCc1ccc2c(c1)CN(C(=O)Nc1nc(-c3ccc(F)cc3)ccc1N)C2 [Compound 396]
Recombinant human HDACs
  IC50: 100 to 500 nM

## CN(C)Cc1ccc2c(c1)CN(C(=O)Nc1nc(-c3ccc(Cl)s3)ccc1N)C2 [Compound 401]
Recombinant human HDACs
  IC50: > 5000 nM

## Nc1ccc(-c2ccc(F)cc2)nc1NC(=O)C1CC2CCC(C1)O2 (stereo not drawn) [Compound 406]
Recombinant human HDACs
  IC50: > 5000 nM

## Nc1cn(-c2ccccc2)nc1NC(=O)N1CCC2(CCOCC2)C1 [Compound 407]
Recombinant human HDACs
  IC50: > 5000 nM

## Nc1ccc(-c2ccc(F)cc2)nc1NC(=O)N1Cc2ccc(CN3CCC(C(F)(F)F)C3)cc2C1 (stereo not drawn) [Compound 408]
Recombinant human HDACs
  IC50: 100 to 500 nM

## CN(C)Cc1ccc2c(c1)CN(C(=O)Nc1nc(-c3cccs3)ccc1N)C2 [Compound 409]
Recombinant human HDACs
  IC50: 100 to 500 nM

## Nc1ccc(-c2cccs2)nc1NC(=O)N1Cc2ccc(CN3CCCC3)cc2C1 [Compound 410]
Recombinant human HDACs
  IC50: 100 to 500 nM
